Data on 19 compounds can be found in ChEMBL document CHEMBL5260811, “Drug development against tuberculosis: Impact of alkaloids” (Eur J Med Chem, 2017).

Values after ≈ are worked out from the molar mass of the structure shown. Starred links: 1 amine or outer side, 2 acyl side, 3 side chain; linkers in the order of their positions; H or OH if unused. Positions of bridges follow the written chain, without caps; N, C: chain ends. Non-standard residues stand in square brackets, D forms with d. Residues, ends and D or L forms follow the SMILES beside them. *: point of attachment. X1 = NC1=N[C@@H]([C@H](N[*:1])C(=O)[*:2])C[C@H](O)N1; ΔAla(Z-3-ureido) = NC(=O)N/C=C(\N)C(=O)O; β3hOrn = NCCC[C@H](N)CC(=O)*; Dap = NC[C@H](N)C(=O)O

Experiment [1] deals with Mycobacterium tuberculosis. In words: Antimycobacterial activity against Mycobacterium tuberculosis Rv2163c harbouring pbpB gene. The experiment is classed as functional.
The test system of experiment [2] is Mycobacterium tuberculosis. The experiment can be described thus: Antimycobacterial activity against Mycobacterium tuberculosis Rv2068c harbouring blaC gene. The experiment is classed as functional.
The test system of experiment [3] is Mycobacterium tuberculosis. In words: Antimycobacterial activity against Mycobacterium tuberculosis Rv0050 harbouring ponA1 gene. The experiment is classed as functional.
For experiment [4], the system named is Mycobacterium tuberculosis. The experiment can be described thus: Antimycobacterial activity against Mycobacterium tuberculosis harbouring vph gene. The experiment is classed as functional.
Experiment [5] concerns Mycobacterium tuberculosis. The experiment can be described thus: microbe, parasite or virus in culture.
For experiment [6], the system named is Mycobacterium tuberculosis. In words: Antimycobacterial activity against Mycobacterium tuberculosis harbouring katG gene. It is filed as functional.
The test system of experiment [7] is Mycobacterium tuberculosis. The experiment can be described thus: microbe, parasite or virus in culture. This is another data set of the same source.
The subject of experiment [8] is Mycobacterium tuberculosis. The experiment can be described thus: Antimycobacterial activity against Mycobacterium tuberculosis Rv0667 harbouring rpoB gene. It is filed as functional.
The test system of experiment [9] is Mycobacterium tuberculosis. In words: Antimycobacterial activity against multi-drug resistant Mycobacterium tuberculosis. It is filed as functional.
For experiment [10], the system named is Mycobacterium tuberculosis. In words: Antimycobacterial activity against Mycobacterium tuberculosis Rv0006 harbouring gyrA gene. The experiment is classed as functional.
The test system of experiment [11] is Mycobacterium tuberculosis. In words: Antimycobacterial activity against Mycobacterium tuberculosis Rv0005 harbouring gyrB gene. The experiment is classed as functional.
In experiment [12] the test system is Mycobacterium tuberculosis. In words: Antimycobacterial activity against Mycobacterium tuberculosis Rv3790 harbouring DprE1 gene. The experiment is classed as functional.
For experiment [13], the system named is Mycobacterium tuberculosis. The experiment can be described thus: Antimycobacterial activity against extensively drug resistant Mycobacterium tuberculosis clinical isolates. The experiment is classed as functional.
Experiment [14] deals with Mycobacterium tuberculosis. The experiment can be described thus: Antimycobacterial activity against multi-drug resistant Mycobacterium tuberculosis clinical isolates. The experiment is classed as functional.
Experiment [15] concerns Mycobacterium tuberculosis. The experiment can be described thus: Antimycobacterial activity against Mycobacterium tuberculosis 000019 harbouring rrs gene. It is filed as functional.
In experiment [16] the test system is Mycobacterium tuberculosis. The experiment can be described thus: Antimycobacterial activity against Mycobacterium tuberculosis Rv2163c harbouring ftsI gene. The experiment is classed as functional.
The test system of experiment [17] is Mycobacterium tuberculosis. In words: Antimycobacterial activity against Mycobacterium tuberculosis Rv1302 harbouring rfe gene. It is filed as functional.
In experiment [18] the test system is Mycobacterium tuberculosis. The experiment can be described thus: Antimycobacterial activity against Mycobacterium tuberculosis Rv1302 harbouring wecA gene. It is filed as functional.
In experiment [19] the test system is Mycobacterium tuberculosis. The experiment can be described thus: Antimycobacterial activity against Mycobacterium tuberculosis Rv0701 harbouring rplC gene. It is filed as functional.
The subject of experiment [20] is Mycobacterium tuberculosis. The experiment can be described thus: Antimycobacterial activity against Mycobacterium tuberculosis harbouring rrs gene. It is filed as functional.

`O=C(O)[C@H]1/C(=C/CO)O[C@@H]2CC(=O)N21` [CLAVULANIC ACID]: the MIC in experiment [1], in [2] and in [3] was 0.23 µM in each case. Regarding `NCCC[C@H](N)CC(=O)N[C@H]1CNC(=O)[C@H]([C@H]2C[C@H](O)NC(N)=N2)NC(=O)/C(=C/NC(N)=O)NC(=O)[C@H](CO)NC(=O)[C@H](CO)NC1=O` [VIOMYCIN] (β3hOrn-[Dap]SS[ΔAla(Z-3-ureido)][X1]; lactam 1-C), the MIC in [4] amounted to 4000 ng/mL (≈ 5830 nM).

Take `NNC(=O)c1ccncc1` [ISONIAZID]: the MIC in experiment [5], in experiment [6] and in experiment [7] was 10 ng/mL (≈ 72.9 nM) throughout. Take `CO[C@H]1/C=C/O[C@@]2(C)Oc3c(C)c(O)c4c(c3C2=O)C2=NC3(CCN(CC(C)C)CC3)NC2=C(NC(=O)/C(C)=C\C=C\[C@H](C)[C@H](O)[C@@H](C)[C@@H](O)[C@@H](C)[C@H](OC(C)=O)[C@@H]1C)C4=O` [RIFABUTIN]: the MIC in experiment [8] came out at 15 ng/mL (≈ 17.7 nM). Take `CC1(C)S[C@@H]2[C@H](NC(=O)[C@H](N)c3ccc(O)cc3)C(=O)N2[C@H]1C(=O)O` [AMOXICILLIN]: the MIC in [2] and in experiment [3] was 10000 ng/mL throughout.

Compound `O=C1c2ccccc2-n2c1nc1ccccc1c2=O` [TRYPTANTHRIN] returned an MIC in [9] of 0.016 ng/mL (≈ 0.0645 nM). For the compound `CCc1cc(C(N)=S)ccn1` [ETHIONAMIDE], the MIC in experiment [5] turned out to be 600 ng/mL (≈ 3610 nM). For the compound `COc1c(N2CCNC(C)C2)c(F)cc2c(=O)c(C(=O)O)cn(C3CC3)c12` (stereo unspecified) [GATIFLOXACIN], the MIC in experiment [10] and in [11] was 1000 ng/mL (≈ 2660 nM) each time. Compound `O=c1nc(N2CCN(CC3CCCCC3)CC2)sc2c([N+](=O)[O-])cc(C(F)(F)F)cc12` [MACOZINONE] displayed an MIC in experiment [12] of 0.3 ng/mL (≈ 0.657 nM).

In the case of `C[C@H]1COC2(CCN(c3nc(=O)c4cc(C(F)(F)F)cc([N+](=O)[O-])c4s3)CC2)O1` [BTZ-043], the MIC in experiment [13] came to 1 ng/mL (≈ 2.32 nM); in experiment [14], 0.1 ng/mL (≈ 0.232 nM); in [12] it was 1 ng/mL (≈ 2.32 nM). In experiment [8], `CO[C@H]1/C=C/O[C@@]2(C)Oc3c(C)c(O)c4c(O)c(c(/C=N/N5CCN(C6CCCC6)CC5)c(O)c4c3C2=O)NC(=O)/C(C)=C\C=C\[C@H](C)[C@H](O)[C@@H](C)[C@@H](O)[C@@H](C)[C@H](OC(C)=O)[C@@H]1C` [RIFAPENTINE] registered an MIC of 30 ng/mL (≈ 34.2 nM).

In the case of `NCC[C@H](O)C(=O)N[C@@H]1C[C@H](N)[C@@H](O[C@H]2O[C@H](CN)[C@@H](O)[C@H](O)[C@H]2O)[C@H](O)[C@H]1O[C@H]1O[C@H](CO)[C@@H](O)[C@H](N)[C@H]1O` [AMIKACIN], the MIC in experiment [15] came to 120 ng/mL (≈ 205 nM).

For `CC1(C)C[C@@H]1C(=O)N/C(=C\CCCCSC[C@H](N)C(=O)O)C(=O)O` [CILASTATIN], the MIC worked out at 160 ng/mL in experiment [1] and 160 ng/mL (≈ 446 nM) in experiment [16].

On to `C[C@H]1COc2c(N3CCN(C)CC3)c(F)cc3c(=O)c(C(=O)O)cn1c23.C[C@H]1COc2c(N3CCN(C)CC3)c(F)cc3c(=O)c(C(=O)O)cn1c23.O` [LEVOFLOXACIN], for which the MIC in experiment [10] and in experiment [11] was 500 ng/mL throughout. On to `CCCCc1ccc(NC(=O)C2=CCN(C)[C@@H]([C@H](O[C@@H]3O[C@H](CN)[C@@H](O)[C@H]3O)[C@H]3O[C@@H](n4ccc(=O)[nH]c4=O)[C@H](O)[C@@H]3O)C(=O)N2C)cc1`, for which the MIC in experiment [17] and in experiment [18] was 1560 ng/mL (≈ 2270 nM) throughout. `CC(=O)NC[C@H]1CN(c2ccc(N3CCOCC3)c(F)c2)C(=O)O1` [LINEZOLID] returned an MIC in experiment [19] of 500 ng/mL (≈ 1480 nM). As to `O=C(O)c1cn(C2CC2)c2cc(N3CCNCC3)c(F)cc2c1=O` [CIPROFLOXACIN], the MIC in [10] and in [11] was 125 ng/mL (≈ 377 nM) each time. In experiment [19], `CC(=O)NC[C@H]1CN(c2ccc(N3CCSCC3)c(F)c2)C(=O)O1` [SUTEZOLID] displayed an MIC of 500 ng/mL (≈ 1410 nM). `NC[C@H]1O[C@H](O[C@H]2[C@H](O)[C@@H](O[C@H]3O[C@H](CO)[C@@H](O)[C@H](N)[C@H]3O)[C@H](N)C[C@@H]2N)[C@H](O)[C@@H](O)[C@@H]1O` [KANAMYCIN] gave an MIC in experiment [20] of 1000 ng/mL (≈ 2060 nM).
